The assay addresses T1, human PD-1 / PD-L1-Ig binding on Jurkat cell line over-expressing human PD-1 (Jurkat-PD-1) (Homo sapiens, UniProt Q15116).
T1 construct: expressed in transfected cells; host or cells: Jurkat
In words: Jurkat-PD-1 Cell Binding High-Content Screening Assay (CBA). It counts as cell-based. As to conditions: Jurkat-PD-1 cells, PE-labeled PD-L1-Ig 20 nM final; read-out: Jurkat HPD1_PDL1 IC50. An outline of the steps:
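Cell-bound PE-labeled PD-L1-Ig (20 nM final, 1 h) measured by high-content imaging after fixation and Hoechst 33342 counterstain. Compound was applied first for 2 h at 37° C. to Jurkat cells over-expressing human PD-1 in DMEM with 10% FCS.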

Where a SMILES comes first, the peptide text is derived from it. Bridges are numbered along the chain shown (N, C = ends). [ ]: non-standard residue; d: D form. The star is where a group is joined. ξ: configuration not given here. Phe(3-CF3) = N[C@@H](Cc1cccc(C(F)(F)F)c1)C(=O)O; Ala(morpholin-4-yl) = N[C@@H](CN1CCOCC1)C(=O)O; Phe(4-COOH) = N[C@@H](Cc1ccc(C(=O)O)cc1)C(=O)O; Bip = N[C@@H](Cc1ccc(-c2ccccc2)cc1)C(=O)O; Phe(3-Me) = Cc1cccc(C[C@H](N)C(=O)O)c1; Bta = N[C@@H](Cc1csc2ccccc12)C(=O)O; Val(3-OH) = CC(C)(O)[C@H](N)C(=O)O; ξW = NC(Cc1c[nH]c2ccccc12)C(=O)O; 3Pal = N[C@@H](Cc1cccnc1)C(=O)O; 4Pal = N[C@@H](Cc1ccncc1)C(=O)O; Cha = N[C@@H](CC1CCCCC1)C(=O)O; Cit = NC(=O)NCCC[C@H](N)C(=O)O; Carboxymethyl = O=C(O)C*; Orn = NCCC[C@H](N)C(=O)O; Dab = NCC[C@H](N)C(=O)O; Abu = CC[C@H](N)C(=O)O; Dap = NC[C@H](N)C(=O)O; Propargyl = C#CC*

T1 sequence (Q15116 25-288): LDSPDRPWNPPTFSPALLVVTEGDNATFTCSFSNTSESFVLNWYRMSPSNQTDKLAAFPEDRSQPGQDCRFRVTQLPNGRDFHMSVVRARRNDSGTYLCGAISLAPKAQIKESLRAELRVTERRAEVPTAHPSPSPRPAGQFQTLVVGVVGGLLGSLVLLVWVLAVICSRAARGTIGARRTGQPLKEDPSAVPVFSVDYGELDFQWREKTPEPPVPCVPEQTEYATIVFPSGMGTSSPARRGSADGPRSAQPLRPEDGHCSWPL

`CC[C@H](C)[C@@H]1NC(=O)[C@H](Cc2ccc(-c3ccccc3)cc2)NC(=O)[C@H](C(C)C)NC(=O)[C@H](Cc2c[nH]c3ccccc23)NC(=O)[C@H](CC(=O)O)NC(=O)[C@H](Cc2ccc(OCC(=O)O)cc2)NC(=O)[C@H](Cc2ccncc2)NC(=O)CSC[C@@H](C(=O)N[C@@H](C)C(N)=O)NC(=O)[C@H]([C@@H](C)O)NC(=O)[C@H](C(C)C)NC(=O)[C@H](CC2CCCCC2)NC(=O)[C@H](Cc2cnc[nH]2)NC(=O)[C@@H](CC(C)C)NC(=O)[C@H](CCCN)NC1=O` [Compound 1608]: the IC50 amounted to 32.2 nM.

`CC(C)C[C@H]1NC(=O)[C@H](CCCN)NC(=O)[C@H](Cc2ccc(C(=O)O)cc2)NC(=O)[C@H](Cc2ccc(-c3ccccc3)cc2)NC(=O)[C@H](Cc2csc3ccccc23)NC(=O)[C@H](Cc2cccc(C(F)(F)F)c2)NC(=O)[C@H](CC(=O)O)NC(=O)[C@H](Cc2ccc(C(=O)O)cc2)NC(=O)[C@H](CN2CCOCC2)NC(=O)CSC[C@@H](C(=O)N[C@@H](CCN)C(N)=O)NC(=O)[C@H](CCC(=O)O)NC(=O)[C@H](C(C)C)NC(=O)[C@H](CC2CCCCC2)NC(=O)[C@H](CCN)NC1=O` [Example 2739] ({CH2CO}-[Ala(morpholin-4-yl)][Phe(4-COOH)]D[Phe(3-CF3)][Bta][Bip][Phe(4-COOH)][Orn][dL][Dab][Cha]VEC[Dab]-NH2; thioether N-14): the IC50 worked out at 3.2 nM. Then `CC(C)C[C@@H]1NC(=O)C(Cc2c[nH]c3ccccc23)NC(=O)[C@H](CC(=O)O)NC(=O)[C@H](Cc2ccc(O)cc2)NC(=O)[C@H](Cc2ccccc2)NC(=O)CSC[C@@H](C(=O)NCC(N)=O)NC(=O)[C@H]([C@@H](C)O)NC(=O)[C@H](C(C)C)NC(=O)[C@H](CC(C)C)NC(=O)[C@H](CC(N)=O)NC(=O)[C@@H](CC(C)C)NC(=O)[C@H](CCN)NC(=O)[C@H](C(C)C)NC(=O)[C@H](Cc2ccc(-c3ccccc3)cc2)NC1=O` (stereo partly drawn) [Compound 1215] ({CH2CO}-FYD[ξW]L[Bip]V[Dab][dL]NLVTCG-NH2; thioether N-14), with 47 nM; and `CC(C)C[C@H]1NC(=O)[C@H](CCCN)NC(=O)[C@H](C(C)C)NC(=O)[C@H](Cc2ccc(-c3ccccc3)cc2)NC(=O)[C@H](C(C)C)NC(=O)[C@H](Cc2ccc(O)cc2)NC(=O)[C@H](CC(=O)O)NC(=O)[C@H](Cc2ccc(OCC(=O)O)cc2)NC(=O)[C@H](CN)NC(=O)CSC[C@@H](C(=O)N[C@@H](CCN)C(N)=O)NC(=O)[C@H](CCCCN)NC(=O)[C@H](C(C)C)NC(=O)[C@H](CC2CCCCC2)NC(=O)[C@H](CCN)NC1=O` [Compound 2033] ({CH2CO}-[Dap]Y(Carboxymethyl)DYV[Bip]V[Orn][dL][Dab][Cha]VKC[Dab]-NH2; thioether N-14), with 18.4 nM.

As to `CC[C@@H]1NC(=O)[C@H](Cc2c[nH]c3ccccc23)NC(=O)[C@H](CC(=O)O)NC(=O)[C@H](Cc2ccc(OCC(=O)O)cc2)NC(=O)[C@H](CN)NC(=O)CSC[C@@H](C(=O)N[C@@H](C)C(N)=O)NC(=O)[C@H]([C@@H](C)O)NC(=O)[C@H](C(C)C)NC(=O)[C@H](CC2CCCCC2)NC(=O)[C@H](CCN)NC(=O)[C@@H](CC(C)C)NC(=O)[C@H](CCCN)NC(=O)[C@H]([C@@H](C)CC)NC(=O)[C@H](Cc2ccc(-c3ccccc3)cc2)NC1=O` [Compound 1721] ({CH2CO}-[Dap]Y(Carboxymethyl)DW[Abu][Bip]I[Orn][dL][Dab][Cha]VTCA-NH2; thioether N-14), the IC50 was found to be 11.3 nM. For `Cc1cccc(C[C@@H]2NC(=O)[C@H](CC(=O)O)NC(=O)[C@H](Cc3ccc(OCC(=O)O)cc3)NC(=O)[C@H](Cc3cccnc3)NC(=O)CSC[C@@H](C(=O)N[C@@H](CCN)C(N)=O)NC(=O)[C@H](CCCN)NC(=O)[C@H](C(C)C)NC(=O)[C@H](CC3CCCCC3)NC(=O)[C@H](CCN)NC(=O)[C@@H](CC(C)C)NC(=O)[C@H](CCCN)NC(=O)[C@H](Cc3ccc(O)cc3)NC(=O)[C@H](Cc3ccc(-c4ccccc4)cc3)NC(=O)[C@H](Cc3ccc(O)cc3)NC2=O)c1` [Compound 2041] ({CH2CO}-[3Pal]Y(Carboxymethyl)D[Phe(3-Me)]Y[Bip]Y[Orn][dL][Dab][Cha]V[Orn]C[Dab]-NH2; thioether N-14) the value was 4.9 nM.

Regarding `CC(C)C[C@@H]1NC(=O)[C@H](CCN)NC(=O)[C@@H](CC(C)C)NC(=O)[C@H](CCCN)NC(=O)[C@H](CCCNC(N)=O)NC(=O)[C@H](Cc2ccc(-c3ccccc3)cc2)NC(=O)[C@H](C(C)C)NC(=O)[C@H](Cc2c[nH]c3ccccc23)NC(=O)[C@H](CC(N)=O)NC(=O)[C@H](Cc2ccc(O)cc2)NC(=O)[C@H](CN)NC(=O)CSC[C@@H](C(=O)N[C@@H](C)C(N)=O)NC(=O)[C@H]([C@@H](C)O)NC(=O)[C@H](C(C)C)NC1=O` [Compound 1088] ({CH2CO}-[Dap]YNWV[Bip][Cit][Orn][dL][Dab]LVTCA-NH2; thioether N-14), the IC50 came to 23.7 nM. For `CCC(C)[C@@H]1NC(=O)[C@H](Cc2ccc(-c3ccccc3)cc2)NC(=O)[C@H](C(C)C)NC(=O)[C@H](Cc2cccc(C)c2)NC(=O)[C@H](CC(=O)O)NC(=O)[C@H](Cc2ccc(C(=O)O)cc2)NC(=O)[C@H](Cc2ccncc2)NC(=O)CSC[C@@H](C(=O)N[C@@H](CC(N)=O)C(N)=O)NC(=O)[C@H]([C@@H](C)O)NC(=O)[C@H](C(C)C)NC(=O)[C@H](CC2CCCCC2)NC(=O)[C@H](CCN)NC(=O)[C@@H](CC(C)C)NC(=O)[C@H](CCCN)NC1=O` (some centres unmarked) [Compound 2297] the value was 10.4 nM; for `Cc1cccc(C[C@@H]2NC(=O)[C@H](CC(=O)O)NC(=O)[C@H](Cc3ccc(OCC(=O)O)cc3)NC(=O)[C@H]([C@@H](C)O)NC(=O)CSC[C@@H](C(N)=O)NC(=O)[C@H](CCCN)NC(=O)[C@H](C(C)C)NC(=O)[C@H](CC3CCCCC3)NC(=O)[C@H](CCN)NC(=O)[C@@H](CC(C)C)NC(=O)[C@H](CCCN)NC(=O)[C@H](Cc3ccc(OCC(=O)O)cc3)NC(=O)[C@H](Cc3ccc(-c4ccccc4)cc3)NC(=O)[C@H](Cc3ccc(OCC(=O)O)cc3)NC2=O)c1` [Compound 1802] ({CH2CO}-TY(Carboxymethyl)D[Phe(3-Me)]Y(Carboxymethyl)[Bip]Y(Carboxymethyl)[Orn][dL][Dab][Cha]V[Orn]C-NH2; thioether N-14), 9.5 nM. For `CC(C)C[C@H]1NC(=O)[C@H](CCCN)NC(=O)[C@H](CN)NC(=O)[C@H](Cc2ccc(-c3ccccc3)cc2)NC(=O)[C@H](C(C)C)NC(=O)[C@H](Cc2c[nH]c3ccccc23)NC(=O)[C@H](CC(=O)O)NC(=O)[C@H](Cc2ccc(OCC(=O)O)cc2)NC(=O)[C@H](CN)NC(=O)CSC[C@@H](C(=O)N[C@@H](C)C(N)=O)NC(=O)[C@H]([C@@H](C)O)NC(=O)[C@H](C(C)C)NC(=O)[C@H](CC2CCCCC2)NC(=O)[C@H](CCN)NC1=O` [Compound 1376] the value was 7.2 nM. Turning to `COC[C@@H]1NC(=O)CSC[C@@H](C(=O)N[C@@H](CCN)C(N)=O)NC(=O)[C@H](CO)NC(=O)[C@H](C(C)(C)O)NC(=O)[C@H](CC2CCCCC2)NC(=O)[C@H](CCN)NC(=O)[C@@H](CC(C)C)NC(=O)[C@H](CCCN)NC(=O)[C@H](Cc2ccc(OCC(=O)O)cc2)NC(=O)[C@H](Cc2ccc(-c3ccccc3)cc2)NC(=O)[C@H](Cc2ccc(OCC(=O)O)cc2)NC(=O)[C@H](Cc2cccc(C)c2)NC(=O)[C@H](CC(=O)O)NC(=O)[C@H](Cc2ccc(C(=O)O)cc2)NC1=O` [Compound 2078] ({CH2CO}-S(Me)[Phe(4-COOH)]D[Phe(3-Me)]Y(Carboxymethyl)[Bip]Y(Carboxymethyl)[Orn][dL][Dab][Cha][Val(3-OH)]SC[Dab]-NH2; thioether N-14), the IC50 was found to be 4.9 nM. For `Cc1cccc(C[C@@H]2NC(=O)[C@H](CC(=O)O)NC(=O)[C@H](Cc3ccc(C(=O)O)cc3)NC(=O)[C@H](Cc3ccncc3)NC(=O)CSC[C@@H](C(=O)N[C@@H](CCN)C(N)=O)NC(=O)[C@H](CCC(N)=O)NC(=O)[C@H](C(C)C)NC(=O)[C@H](CC3CCCCC3)NC(=O)[C@H](CCN)NC(=O)[C@@H](CC(C)C)NC(=O)[C@H](CCCN)NC(=O)[C@H](Cc3ccc(OCC(=O)O)cc3)NC(=O)[C@H](Cc3ccc(-c4ccccc4)cc3)NC(=O)[C@H](Cc3ccc(OCC(=O)O)cc3)NC2=O)c1` [Compound 2309] ({CH2CO}-[4Pal][Phe(4-COOH)]D[Phe(3-Me)]Y(Carboxymethyl)[Bip]Y(Carboxymethyl)[Orn][dL][Dab][Cha]VQC[Dab]-NH2; thioether N-14) the value was 5.9 nM; for `C#CCOc1ccc(C[C@@H]2NC(=O)[C@H](Cc3ccc(-c4ccccc4)cc3)NC(=O)[C@H](Cc3ccc(C(=O)O)cc3)NC(=O)[C@H](Cc3cccc(C)c3)NC(=O)[C@H](CC(=O)O)NC(=O)[C@H](Cc3ccc(C(=O)O)cc3)NC(=O)[C@H](CC)NC(=O)CSC[C@@H](C(=O)N[C@@H](CCN)C(N)=O)NC(=O)[C@H](CCC(=O)O)NC(=O)[C@H](C(C)C)NC(=O)[C@H](CC3CCCCC3)NC(=O)[C@H](CCN)NC(=O)[C@@H](CC(C)C)NC(=O)[C@H](CCCN)NC2=O)cc1` [Compound 1839] ({CH2CO}-[Abu][Phe(4-COOH)]D[Phe(3-Me)][Phe(4-COOH)][Bip]Y(Propargyl)[Orn][dL][Dab][Cha]VEC[Dab]-NH2; thioether N-14), 2.3 nM. Then `CC(C)C[C@H]1NC(=O)[C@H](CCCN)NC(=O)[C@H](CCCNC(N)=O)NC(=O)[C@H](Cc2ccc(-c3ccccc3)cc2)NC(=O)[C@H](C(C)C)NC(=O)[C@H](Cc2c[nH]c3ccccc23)NC(=O)[C@H](CC(=O)O)NC(=O)[C@H](Cc2ccc(OCC(=O)O)cc2)NC(=O)[C@H](Cc2ccc(OCC(=O)O)cc2)NC(=O)CSC[C@@H](C(=O)N[C@@H](C)C(N)=O)NC(=O)[C@H]([C@@H](C)O)NC(=O)[C@H](C(C)C)NC(=O)[C@H](Cc2ccccc2)NC(=O)[C@H](CCN)NC1=O` [Compound 1665] ({CH2CO}-Y(Carboxymethyl)Y(Carboxymethyl)DWV[Bip][Cit][Orn][dL][Dab]FVTCA-NH2; thioether N-14), with 17 nM.

The values are drawn from patent US20250163104A1, “MACROCYCLIC IMMUNOMODULATORS” (priority 2021, published 2025).
